Read-outs that look alike come from different tables or passages of the source.

Data on eight compounds can be found in US10202347B2, “Compound, production method therefor, and use of said compound” (MICROBIAL CHEMISTRY RESEARCH FOUNDATION, priority 2013, dated 2019).

Common to all, as to assay type: cell-based
The test system of test [1] is Helicobacter pylori JCM12093 strain. In words: Measurement of MIC for Helicobacter pylori JCM12093. The following applies: for MIC: Helicobacter pylori, read-out: MIC Helicobacter pylori JCM 12093; for anti-Helicobacter pylori activity (in words): summary of Table 3, H. pylori JCM12093 and JCM12095 strains. The method, then:
Each of the above compounds was measured for minimum inhibitory concentration (MIC) for Helicobacter pylori.
Helicobacter pylori JCM12093 strain and H. pylori JCM12095 strain each were statically cultured in a HP medium (brain heart infusion broth (product of Becton, Dickinson Co.) supplemented with 10% fetal bovine serum (product of Life Technologies Co.)) for 144 hours at 37° C. under microaerobic culture conditions (microaerobic conditions (N2:O2:CO2=85:5:10)).
After completion of the culturing, the culture was suspended with the HP medium and diluted so that Helicobacter pylori was 2×10^6 CFU/mL to 9×10^6 CFU/mL.
Each of the test samples (each of the above compounds, clarithromycin, and ampicillin) was prepared with the HP medium to have a concentration of 256 mg/L. From this concentration, the test sample was 2-fold diluted serially in 15 steps to 0.0078 mg/L.
The above-diluted culture was added at 50 μL/well to 50 μL/well of the HP medium containing each of the test samples at the above concentrations, and was statically cultured for 144 hours at 37° C. under microaerobic culture conditions (microaerobic conditions (N2:O2:CO2=85:5:10)). After completion of the culturing, the presence or absence of proliferation of each bacterium was visually determined based on turbidity, and the MIC for each bacterial strain was obtained.

The subject of test [2] is H. influenza ARD476 strain. Nature of the test: Measurement of MIC for H. influenza ARD476. As to conditions: Haemophilus influenzae, ARD476STRAIN, read-out: MIC H. influenzae ARD476. Here is the method:
Each of the above compounds was measured for minimum inhibitory concentration (MIC) for Haemophilus influenza.
Haemophilus influenza T-196 strain and H. influenza ARD476 strain each were statically cultured in a HI medium (Muller Hinton medium (product of Becton, Dickinson Co.) supplemented with 5% Fildes enrichment (product of Becton, Dickinson Co.)) at 37° C. overnight under aerobic conditions containing 5% carbon dioxide gas.
After completion of the culturing, the culture was suspended with the HI medium and diluted so that each Haemophilus influenza strain was 2×10^6 CFU/mL to 9×10^6 CFU/mL.
Each of the test samples (each of the above compounds, clarithromycin, and ampicillin) was prepared with the HI medium to have a concentration of 256 mg/L. From this concentration, the test sample was 2-fold diluted serially in 11 steps to 0.125 mg/L.
The above-diluted culture was added at 50 μL/well to 50 μL/well of the HI medium containing each of the test samples at the above concentrations, and was statically cultured for 18 hours at 37° C. under aerobic conditions containing 5% carbon dioxide gas.
(§1) After completion of the culturing, the presence or absence of proliferation of each bacterium was visually determined based on turbidity, and the MIC for each bacterial strain was obtained.

The subject of test [3] is Staphylococcus aureus FDA209P strain. In words: Measurement of MIC for Staphylococcus aureus. The following applies: read-out: MIC Staphylococcus aureus FDA209P. The method, then: (§2) Each of the above compounds was measured for minimum inhibitory concentration (MIC) for Staphylococcus aureus and Escherichia coli.
(§3) Staphylococcus aureus FDA209P strain and Escherichia coli K-12 strain each were cultured under shaking in a nutrient broth medium (polypeptone (product of NIHON PHARMACEUTICAL Co.) 1%, fish extract for bacteria (product of KYOKUTO PHARMACEUTICAL INDUSTRIAL Co.) 1%, and sodium chloride 0.2%) at 37° C. overnight.
(§4) After completion of the culturing, the culture was diluted with the nutrient broth medium so that the bacteria were 2×10^6 CFU/mL to 9×10^6 CFU/mL.
(§5) Each of the test samples (each of the above compounds, clarithromycin, and ampicillin) was prepared with the nutrient broth medium to have a concentration of 256 mg/L. From this concentration, the test sample was 2-fold diluted serially in 11 steps to 0.125 mg/L.
(§6) The above-diluted culture was added at 50 μL/well to 50 μL/well of the nutrient broth medium containing each of the test samples at the above concentrations, and was statically cultured at 37° C. overnight. After completion of the culturing, the presence or absence of proliferation of each bacterium was visually determined based on turbidity, and the MIC for each bacterial strain was obtained.

Test [4] relates to Enterococcus faecalis JCM5803 strain. Nature of the test: Measurement of MIC for Enterococcus faecalis. The following applies: read-out: MIC Enterococcus faecalis JCM5803. The method, then:
Each of the above compounds was measured for minimum inhibitory concentration (MIC) for Enterococcus faecalis.
Enterococcus faecalis JCM5803 strain was cultured under shaking in a heart infusion broth medium (product of Becton, Dickinson Co.) at 37° C. overnight.
After completion of the culturing, the culture was diluted with the heart infusion broth medium so that the bacteria were 2×10^4 CFU/mL to 9×10^4 CFU/mL.
Each of the test samples (each of the above compounds, clarithromycin, and ampicillin) was prepared with the heart infusion broth medium to have a concentration of 256 mg/L. From this concentration, the test sample was 2-fold diluted serially in 11 steps to 0.125 mg/L.
The above-diluted culture was added at 50 μL/well to 50 μL/well of the heart infusion broth medium containing each of the test samples at the above concentrations, and was statically cultured at 37° C. for 18 hours.
as §1

For test [5], the system named is Escherichia coli K-12 strain. In words: Measurement of MIC for Escherichia coli. As to conditions: K12STRAIN, read-out: MIC Escherichia coli K-12. Here is the method: as §2, §3, §4, §5, §6
The mark [6] stands for this setting: JCM12093, HP medium, 144 hours, 37° C., microaerobic.
[7] abbreviates: HI medium, 18 hours, 37° C., 5% carbon dioxide.
[8] abbreviates: nutrient broth medium, 37° C. overnight.
Setting [9] is: JCM5803, heart infusion broth medium, 37° C., 18 hours.

Turning to `CCCCCCCCc1nc2ccccc2c(OCC(=O)O)c1C` [Structural Formula (2)], the MIC was 1 µg/mL in test [1] (setting [6]); 64 µg/mL in test [2] (setting [7]); greater than 128 µg/mL in test [3] (setting [8]); greater than 128 µg/mL in test [4] (setting [9]); 128 µg/mL in test [5] (setting [8]).

On to `Cc1c(CCCC/C=C/C(C)C)[nH]c2ccccc2c1=O` [Structural Formula (3)], for which the MIC in test [1] (setting [6]) was 0.008 µg/mL; in test [2] (setting [7]), greater than 128 µg/mL; in test [3], greater than 128 µg/mL; in test [4] (setting [9]), greater than 128 µg/mL; in test [5] (setting [8]), greater than 128 µg/mL. Besides, the “anti-Helicobacter pylori activity (in words)” value in test [1] is reported as “exhibited anti-Helicobacter pylori activity at low concentrations”.

As for `Cc1c(CC(C)C)[nH]c2ccccc2c1=O` [Structural Formula (4)], the MIC in test [1] (setting [6]) is 0.5 µg/mL; in test [2] (setting [7]), 128 µg/mL; in test [3], 128 µg/mL; in test [4] (setting [9]) it was greater than 128 µg/mL; in test [5] (setting [8]) it was 128 µg/mL.

Take `CCCCCCCCc1c(C)c(=O)c2ccccc2n1CC(=O)OC` [Structural Formula (5)]: the MIC in test [1] (setting [6]) is 2 µg/mL; in test [2] (setting [7]), greater than 128 µg/mL; in test [3], greater than 128 µg/mL; in test [4] (setting [9]), greater than 128 µg/mL; in test [5] (setting [8]) it was greater than 128 µg/mL.

As to `CCCCCCCCc1c(C)c(=O)c2ccccc2n1CC(=O)O` [Structural Formula (6)], the MIC in test [1] (setting [6]) is 1 µg/mL; in test [2] (setting [7]) it was 128 µg/mL; in test [3], 128 µg/mL; in test [4] (setting [9]), greater than 128 µg/mL; in test [5] (setting [8]), 128 µg/mL.

On to `CCCCCCCc1c(C)c(=O)c2ccccc2n1CN=C=S` [Structural Formula (11)], for which the MIC in test [1] (setting [6]) is 0.016 µg/mL; in test [2] (18 h), greater than 128 µg/mL; in test [3] (setting [8]) it was 4 µg/mL; in test [4] (JCM5803, 18 h), greater than 128 µg/mL; in test [5] it was greater than 128 µg/mL. Moreover, the “anti-Helicobacter pylori activity (in words)” value in test [1] was “exhibited anti-Helicobacter pylori activity at low concentrations”.

As to `CCCCCCCc1c(C)c(=O)c2ccccc2n1CNC(=S)SC` [Structural Formula (12)], the MIC in test [1] (JCM12093, 144 h) is 0.03 µg/mL; in test [2] (setting [7]), greater than 128 µg/mL; in test [3], greater than 128 µg/mL; in test [4] (setting [9]), greater than 128 µg/mL; in test [5] (setting [8]), greater than 128 µg/mL. The “anti-Helicobacter pylori activity (in words)” value in test [1] is listed as “exhibited anti-Helicobacter pylori activity at low concentrations”.

Turning to `CCCCCCCc1c(C)c(=O)c2ccccc2n1CN=C(SC)SC` [Structural Formula (13)], the MIC was 2 µg/mL in test [1] (JCM12093, 144 h); greater than 128 µg/mL in test [2] (setting [7]); 4 µg/mL in test [3]; greater than 128 µg/mL in test [4] (setting [9]); greater than 128 µg/mL in test [5] (setting [8]).
